# Results from paper PMC9519396, “First thermostable CLIP-tag by rational design applied to an archaeal O^6-alkyl-guanine-DNA-alkyl-transferase” (Computational and Structural Biotechnology Journal, 2022).
# Molecular target: T1, SsOGT-MC^8 (Saccharolobus solfataricus, UniProt Q97VW7, G105N/G130P/K110E/M106T/R102A/S100A/S109D/S132L)
# T1 construct: gene ogt; TSCLIP; synthetic gene with eight substitutions, Y90 kept; His6-tag, pHTP1, E. coli BL21 Rosetta2 (DE3), Ni-NTA purified; 8AES holds no ligand
# T1 sequence (Q97VW7 1-151 S100A/R102A/G105N/M106T/S109D/K110E/G130P/S132L): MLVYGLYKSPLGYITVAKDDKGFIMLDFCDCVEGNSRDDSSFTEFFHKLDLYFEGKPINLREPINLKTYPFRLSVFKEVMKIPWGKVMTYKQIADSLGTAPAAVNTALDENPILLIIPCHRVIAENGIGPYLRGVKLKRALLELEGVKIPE
# Assay: competitive labelling with BC-TMR, SDS-PAGE fluorescence gel imaging
# Format: biochemical
# Source text: competitive labelling with BC-TMR, SDS-PAGE fluorescence gel imaging on SsOGT-MC^8
smiles,measurement,value
[N-]=[N+]=NCCCCCC(=O)NCc1ccc(COc2nccc(N)n2)cc1 [BC-2],IC50,128 ± 31.1 µM
